# Data from patent US20040253207A1, “Methods and compositions for prostate epithelial cell differentiation” (Barnes-Jewish Hospital, priority 2002, published 2004).
# *: point of attachment. Decanoyl = CCCCCCCCCC(=O)*; CH2Cl = ClC*
# Assays:
# Type in all cases: cell-based, human
# LNCaP cells = test: Prostate epithelial cell differentiation markers (cytokeratin immunoblot), LNCaP; conditions: various concentrations of CMK, 72 hours, serum-free RPMI 1640
# Method: (§1) Cells (approximately 1×10^6 cells) were seeded in 100 mm cell culture dishes and cultured in RPMI 1640 supplemented with 10% fetal bovine serum at 5% CO2. Subconfluent cells were washed with phosphate buffered saline (PBS), lysed in lysis buffer (Cell Signaling Technology, Beverly, Mass.) and used for cell lysate. For the detection of PDF in conditioned media, subconfluent cells were serum-starved for 24 h. The serum free media were collected and precipitated with 10% trichloroacetic acid. After centrifugation, pellets were dissolved in the buffer which consisted of 8 M urea, 50 mM Tris (pH 8.0) and 0.1% NP-40. Samples were mixed in 5× Laemmli sample buffer with 2% beta-mercaptoethanol, subjected to electrophoresis on a 15% SDS-polyacrylamide gel, and transferred to PVDF membranes. Membranes were blocked with PBS containing 0.1% Tween 20 and 5% non-fat dry milk for 1 h at room temperature and incubated with the appropriate primary antibodies and antisera (1:500-2000) overnight at 4° C. After the membranes were washed three times with PBS containing 0.1% Tween 20, the membranes were incubated with appropriate horse-radish peroxidase-conjugate secondary antibodies (1:2000) for 1 h at 4° C. The protein bands were visualized by chemiluminescence using SuperSignal West Pico ECL kit (PIERCE, Rockford, Ill.). This protocol was used for the detection of PDF, cytokeratin and PSA. […]
# [1] = test system: PDF processing in LNCaP cells; test: PC-dependent PDF processing in LNCaP cells, immunoblot for pro-PDF and mature PDF; conditions: various concentrations of CMK, 24 hours
# Method: Cells (approximately 1×10^6 cells) were seeded in 100 mm cell culture dishes and cultured in RPMI 1640 supplemented with 10% fetal bovine serum at 5% CO2. Subconfluent cells were washed with phosphate buffered saline (PBS), lysed in lysis buffer (Cell Signaling Technology, Beverly, Mass.) and used for cell lysate. For the detection of PDF in conditioned media, subconfluent cells were serum-starved for 24 h. The serum free media were collected and precipitated with 10% trichloroacetic acid. After centrifugation, pellets were dissolved in the buffer which consisted of 8 M urea, 50 mM Tris (pH 8.0) and 0.1% NP-40. Samples were mixed in 5× Laemmli sample buffer with 2% beta-mercaptoethanol, subjected to electrophoresis on a 15% SDS-polyacrylamide gel, and transferred to PVDF membranes. Membranes were blocked with PBS containing 0.1% Tween 20 and 5% non-fat dry milk for 1 h at room temperature and incubated with the appropriate primary antibodies and antisera (1:500-2000) overnight at 4° C. After the membranes were washed three times with PBS containing 0.1% Tween 20, the membranes were incubated with appropriate horse-radish peroxidase-conjugate secondary antibodies (1:2000) for 1 h at 4° C. The protein bands were visualized by chemiluminescence using SuperSignal West Pico ECL kit (PIERCE, Rockford, Ill.). This protocol was used for the detection of PDF, cytokeratin and PSA.
# PC-dependent PDF processing in LNCaP cells was also examined in the presence of CMK by immunoblotting for PDF. Cells were cultured and serum-starved with and without various concentrations of CMK for 24 hours. Cells and supernatants were electrophoresed on 15% SDS-PAGE. Immunoblots were performed with anti-pro-PDF antibody (˜40 kd pro-PDF form) and anti-PDF antisera (˜17 kd mature PDF form).
# [2] = test system: PSA expression in LNCaP cells; test: DHT-stimulated PSA expression in LNCaP cells (anti-PSA immunoblot); conditions: various concentrations of CMK, 24 hours
# Method: as §1
# [3] = test system: proprotein convertases (PCs) in LNCaP, PC3 and DU145 cells; test: Proprotein convertase activity assay (cleavage of fluorogenic substrate boc-RVRR-amc); conditions: 100 μM CMK for 24 hours
# Method: For determination of cellular PC activity, 30,000 cells were seeded in 48-well plates for 24 hours. The next day, growth medium and CMK were added until a final concentration of 100 μM was reached. After a 24-hour incubation, media were replaced and cells were washed with PBS. Additional 48-well plates were prepared in the same manner for the determination of cell number which was used for normalization. 150 μl of assay medium which consists of RPMI 1640 with 0.25% Triton X-100 for permeabilization and boc-RVRR-amc (100 μM) as a fluorogenic substrate were added to each well. Fluorescence was measured at 360 nm excitation and 460 nm emission wavelengths after 4 h of substrate addition. The data were normalized to cell number. Human recombinant furin (Sigma, St. Louis, Mo.) was used for positive control.
# PC activity in prostate cancer cells and inhibition of PC activity by CMK was next examined. LNCaP, PC3 and DU 145 cells were incubated in the presence or absence of 100 μM CMK for 24 hours. Thereafter, 100 μM fluorogenic substrate, boc-RVRR-amc, was added and cells were incubated for an additional four hours. PC activity was assayed by measuring the cleavage of the fluorogenic substrate.
substance,measurement,setting,value
decanoyl-Arg-Val-Lys-Arg-chloromethylketone (Decanoyl-RVKR-CH2Cl) [CMK],"expression of cytokeratin 8, 18 and 19",LNCaP cells,down-regulated
same,expression of cytokeratin 14,LNCaP cells,upregulated in a dose-dependent manner
same,cellular PDF,[1]; LNCaP cell lysate,did not affect
same,PDF processing (mature PDF) in LNCaP-conditioned media,[1]; serum-starved,reduction of PDF processing in LNCaP-conditioned media in a dose-dependent manner
same,pro-PDF in LNCaP-conditioned media,[1]; serum-starved,concomitant increase in pro-PDF
same,levels of endogenous PSA,[2]; in the absence of DHT,not affected
same,androgen-induced PSA expression,[2]; in the presence of DHT,inhibited
same,PC activity (cleavage of boc-RVRR-amc),[3],inhibition of PCs
